“Also recorded” adds a separate entry of the source.
Columns and labels:
CXCR4 [1] = target: T1, CXCR4 (Homo sapiens, UniProt P61073); experiment: Competition assay using biotin-labeled TN14003 and streptavidin-conjugated rhodamine on tumor cells; assay type: binding
T1 construct: endogenous in cells; probably MDA-MB-231
Text: In a separate embodiment, a process for screening potential drug candidates is provided. The process includes providing a labeled peptide-based CXCR4 antagonist that has a detectable signal when bound to a CXCR4 receptor; contacting a CXCR4 receptor with at least one test molecule at a known concentration to form a test sample; contacting the test sample with the peptide-based antagonist; separately, contacting the peptide-based antagonist to a sample not including any test molecule to form a control sample; and comparing the signal from the test sample to the signal from the control sample. In a specific subembodiment, the peptide-based antagonist is derived from TN14003 (described in PCT Publication No. WO 04/087068 to Emory University). In a further subembodiment, the antagonist is labeled with a biotin molecule and the signal is elicited when the biotin-labeled antagonist is contacted with a streptavadin-conjugated signal molecule.
The peptide-based antagonist is typically a molecule with high affinity for the receptor. In one embodiment, the molecule is derived from the “T140” peptide antagonists. In a specific embodiment, the antagonist is TN14003 (described in PCT Publication No. WO 04/087068 to Emory University). The receptor is typically expressed in a cell line. The process can be performed as a dose-response curve. In this embodiment, the test compound is incubated with the receptor at varying concentrations and the signal elicited after binding of the labeled antagonist is measured and compared to control, as well as to each other.
Using biotin-labeled TN14003 along with streptavidin-conjugated rhodamine allowed a determination of the binding efficiency of these chemicals to the SDF-1 binding site of CXCR4 on tumor cells and compared it to AMD3100-SDF-1 interactions (FIG. 7). […] Cells were pre-incubated with different concentrations of AMD3100. […] Therefore, one of these compounds, WZZL811S, was selected to study its therapeutic potential based on potency and low toxicity to cells (FIG. 9).

[2] = test system: CXCR4/SDF-1-mediated Akt activation; experiment: SDF-1-stimulated Akt phosphorylation in MDA-MB-231 cells (western blot); assay type: cell-based; settings: for concentration blocking Akt activation: 100 ng/ml SDF-1, 30 minutes, 0-1000 nM tested; for SDF-1-stimulated phosphorylation of Akt: MDA-MB-231 cells, 100 ng/ml SDF-1, 30 min, dose-dependent
Procedure: (§1) CXCR4/SDF-1 interaction activates PI3K/Akt and Ras/Raf/MEK/Erk pathways in a Gαi protein (PTX-sensitive)-dependent manner. Experiments were conducted to determine the effect of blocking CXCR4/SDF-1 interaction by either TN14003 or AMD3100 at different concentrations (0, 0.01, 0.1, 1, 10, 100, 1000 nM) on phosphorylations of Akt and Erk1/2 signaling. Incubating cells with 100 ng/ml of SDF-1 for 30 minutes activated Akt. […] However, the increase in Erk1/2 phosphorylation by SDF-1 was not significant as the increase in Akt phosphorylation.

[3] = test system: CXCR4/SDF-1-mediated Erk1/2 phosphorylation; experiment: SDF-1-stimulated Erk1/2 phosphorylation; assay type: cell-based; settings: data not shown
Procedure: as §1

CXCR4 [4] = experiment: CXCR4 protein levels after treating cells; assay type: cell-based; settings: treated cells
[5] = withdrawn from clinical trials; cited from earlier work
SHIV = SHIV infection of model cells, p27 antigen capture; assay type: cell-based; settings: 0.1, 1, 10 or 100 nM drug prior to infection
Procedure: The effect of the test compounds on HIV infection in model cells was analyzed by p27 antigen capture using SHIV infected cells. Cells were incubated with 0, 0.1, 1, 10 or 100 nM drug prior to infection with SHIV. Viral titer was measured after infection by analyzing levels of p27 antigen. […] The inhibition was measurable at 2 days, and continued to 5 day incubations.

MDA-MB-231 cells [6] = experiment: Matrigel invasion assay, CXCR4/SDF-1-mediated invasion; assay type: cell-based; settings: 2 nM
Procedure: Lowering CXCR4 mRNA levels by siRNAs inhibited CXCR4/SDF-1-mediated invasion as measured by a matrigel invasion assay. The CXCR4 ligand, SDF-1 (400 ng/ml) was added to the lower chamber to attract CXCR4-positive breast cancer cells to migrate through the matrigel. The invasion of MDA-MB-231 cells transfected with siRNA1 decreased to 39±4% of the control cells, 51±8% with siRNA2, and only 16±6% with both siRNA1+2 (FIG. 3A).
WZZL811S was tested in a matrigel invasion assay to determine whether it can inhibit CXCR4/SDF-1-mediated invasion.

MDA-MB-231 cells [7] = experiment: Cell viability of MDA-MB-231 cells; assay type: cell-based; settings: 100 μM (the highest concentration tested)
metastatic 686LN cells = experiment: 686LN head & neck cancer metastasis model, tail vein injection, FDG-PET; assay type: in vivo; settings: 20 mg/mouse/twice weekly; thirty days
Procedure: The metastatic 686LN cells were injected intravenously through the tail vein to generate experimental animal models for Head & Neck cancer metastasis, modulated via CXCR4. […] These 3-D projection images show lung metastases well (bone mets and liver mets were apparent in axial section images of mice in control groups, data not shown).

[8] = test system: human umbilical vein endothelial cells (HUVECs); experiment: Endothelial capillary tube formation assay; assay type: cell-based; settings: 100 nM; SDF-1 100 ng/ml; 18 hours
Procedure: The anti-angiogenic effect of test compounds was measured by analyzing endothelial cell growth and tube formation. The angiogenic effect of SDF-1 (100 ng/ml) on capillary formation by human umbilical vein endothelial cells (HUVECs) was examined in vitro using Matrigel-coated 24-well plates precoated with Matrigel and incubated for 18 hours. The angiogenic effect of SDF-1 was inhibited by either 100 nM TN14003 (peptide-based CXCR4 antagonist) or WZZL811S treatment (FIG. 14a, graph FIG. 14b).

CXCR4 [9] = target: T1, CXCR4; experiment: Immunofluorescence of biotin-labeled TN14003 on MDA-MB-231 cells preincubated with SDF-1; assay type: binding; settings: 400 ng/ml SDF-1, 10 min
Procedure: Initially, experiments were performed to verify that TN14003 binds to the predicted SDF-1 binding sites on the CXCR4 receptor. In these studies, MDA-MB-231 cells were incubated in the absence (FIG. 1A, B) or presence (FIG. 1A, C) of 400 ng/ml of SDF-1α for 10 min, and then fixed in ice-cold acetone. Immunofluorescence of the biotin-labeled TN14003 was negative in both membrane and cytosol in the cells pretreated with SDF-1α for 10 min (FIG. 1A, C).

HIV = settings: MT-4 cells; read-out: concentration required for 50% protection of HIV-induced cytopathogenicity; cited from earlier work
MT-4 cells = settings: cited from earlier work

T1 sequence (P61073 whole entry): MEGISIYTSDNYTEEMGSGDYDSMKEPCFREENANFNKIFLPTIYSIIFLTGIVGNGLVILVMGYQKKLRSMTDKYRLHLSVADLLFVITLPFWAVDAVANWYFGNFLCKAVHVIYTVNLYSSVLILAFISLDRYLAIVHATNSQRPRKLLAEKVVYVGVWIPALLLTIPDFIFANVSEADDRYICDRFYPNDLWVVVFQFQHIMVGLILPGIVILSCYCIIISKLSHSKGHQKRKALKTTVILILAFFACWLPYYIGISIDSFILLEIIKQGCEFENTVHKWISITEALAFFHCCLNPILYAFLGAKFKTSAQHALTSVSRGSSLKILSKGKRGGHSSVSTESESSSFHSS

Row | Compound | concentration blocking Akt activation [2] | SDF-1-stimulated phosphorylation of Akt [2] | effect on CXCR4 protein levels (CXCR4 [4]) | SHIV infection (p27 antigen levels) (SHIV) | CXCR4/SDF-1 mediated invasion of MDA-MB-231 (MDA-MB-231 cells [6]) | angiogenic effect of SDF-1 on capillary tube formation [8] | other results
1 | C1=CC(CN2CCCNCCNCCCNCC2)CC=C1CN1CCCNCCNCCCNCC1 (stereo not shown) [AMD3100] | a few nano molar | blocked | did not affect | – | – | – | concentration needed to compete against biotin-labeled TN14003 (CXCR4 [1]; cells pre-incubated with different concentrations): 10 µM; concentration attenuating Erk1/2 phosphorylation [3]: 100 nM; side effect in clinical study [5]: cardiac-related side effect
2 | c1cnc(NCc2ccc(CNc3ncccn3)cc2)nc1 [WZ40] | – | – | – | inhibited SHIV infection at all concentrations tested | – | – | –
3 | c1ccc(NCc2ccc(CNc3ccccn3)cc2)nc1 [WZZL811S] | – | blocked | – | inhibited SHIV infection at all concentrations tested | as potent as TN14003; also recorded: blocked | inhibited | IC50 (CXCR4 [1]; cells pre-incubated with various concentrations, read-out: IC50, detection of CXCR4 by biotin-labeled TN14003 on pre-incubated cells): < 1 nM; binding affinity to the ligand-binding site of CXCR4 on tumor cells (CXCR4 [1]; competition with biotin-labeled TN14003): nano-molar concentration; cell viability of MDA-MB-231 cells (MDA-MB-231 cells [7]): did not decrease cell viability; efficacy relative to TN14003 (metastatic 686LN cells): 80%
4 | TN14003 | sub-nano molar concentration | blocked | did not affect | – | blocked | inhibited | concentration attenuating Erk1/2 phosphorylation (in words) [3]: sub-nano molar concentration; metastasis of 686LN cells to organs (FDG-PET) (metastatic 686LN cells): failed to metastasize to any organs; binding of biotin-labeled TN14003 to CXCR4 after SDF-1 preincubation (CXCR4 [9]): negative; also recorded: blocked; EC50 (HIV): 0.6 nM; concentration leading to 50% toxicity (MT-4 cells): 410 µM
